Experimental findings from article PMC5218480 (PLoS ONE, 2017) are described below.

Molecules are shown by their SMILES.

In this assay the test system is MV-4-11 cells. The assay is described as follows: Gene expression microarray analysis (Affymetrix PrimeView) and GSEA. The format is cell-based, human. On the set-up: RFU PODN (11730768_x_at) / Fold change /veh PODN (11730768_x_at) / RFU LINC00158 (11744669_a_at) / Fold change /veh LINC00158 (11744669_a_at) / RFU DUSP10 (11751237_a_at) / Fold change /veh DUSP10 (11751237_a_at) / RFU ID3 (11757404_x_at) / Fold change /veh ID3 (11757404_x_at) / RFU PLEKHG5 (11737974_s_at) / Fold change /veh PLEKHG5 (11737974_s_at) / RFU LRRC4B (11730491_at) / Fold change /veh LRRC4B (11730491_at) / RFU GIMAP4 (11747438_a_at) / Fold change /veh GIMAP4 (11747438_a_at) / RFU KRT8 (11758183_x_at) / Fold change /veh KRT8 (11758183_x_at) / RFU CNN1 (11734310_a_at) / Fold change /veh CNN1 (11734310_a_at) / RFU VPS37D (11726825_at) / Fold change /veh VPS37D (11726825_at) / RFU C10orf10 (11716522_x_at) / Fold change /veh C10orf10 (11716522_x_at) / RFU KIR2DL2 /// KIR2DL4 /// KIR2DL5A /// KIR2DL5B /// KIR2DS1 /// KIR2DS2 /// KIR2DS3 /// KIR2DS4 /// KIR3DL3 /// KIR3DL3 /// KIR3DS1 (11738374_at) / Fold change /veh KIR2DL2 /// KIR2DL4 /// KIR2DL5A /// KIR2DL5B /// KIR2DS1 /// KIR2DS2 /// KIR2DS3 /// KIR2DS4 /// KIR3DL3 /// KIR3DL3 /// KIR3DS1 (11738374_at) / RFU C1QL1 (11718748_at) / Fold change /veh C1QL1 (11718748_at) / RFU TMPRSS4 (11747572_a_at) / Fold change /veh TMPRSS4 (11747572_a_at) / RFU HAMP (11756126_x_at) / Fold change /veh HAMP (11756126_x_at) / RFU RNFT2 (11725882_a_at) / Fold change /veh RNFT2 (11725882_a_at) / RFU NR4A2 (11747474_a_at) / Fold change /veh NR4A2 (11747474_a_at) / RFU ABCC12 (11746883_a_at) / Fold change /veh ABCC12 (11746883_a_at) / RFU TMEM136 (11760407_x_at) / Fold change /veh TMEM136 (11760407_x_at) / RFU CLDN22 /// WWC2 (11732394_at) / Fold change /veh CLDN22 /// WWC2 (11732394_at) / RFU HLA-DPB1 (11760878_x_at) / Fold change /veh HLA-DPB1 (11760878_x_at) / RFU SPINT1 (11716480_a_at) / Fold change /veh SPINT1 (11716480_a_at) / RFU GAP43 (11754022_s_at) / Fold change /veh GAP43 (11754022_s_at) / RFU A4GNT (11735810_at) / Fold change /veh A4GNT (11735810_at) / RFU PRB3 (11715151_x_at) / Fold change /veh PRB3 (11715151_x_at) / RFU TUBB4B (11761932_at) / Fold change /veh TUBB4B (11761932_at) / RFU CAPN14 (11732068_a_at) / Fold change /veh CAPN14 (11732068_a_at) / RFU TMCC2 (11721928_a_at) / Fold change /veh TMCC2 (11721928_a_at) / RFU IRGQ (11745062_a_at) / Fold change /veh IRGQ (11745062_a_at) / RFU FAM174B (11720279_a_at) / Fold change /veh FAM174B (11720279_a_at) / RFU TMPRSS4 (11748680_a_at) / Fold change /veh TMPRSS4 (11748680_a_at) / RFU FAM212B (11763350_a_at) / Fold change /veh FAM212B (11763350_a_at) / RFU PLEKHG5 (11743358_a_at) / Fold change /veh PLEKHG5 (11743358_a_at) / RFU ZSCAN30 (11745921_a_at) / Fold change /veh ZSCAN30 (11745921_a_at) / RFU CMKLR1 (11741424_a_at) / Fold change /veh CMKLR1 (11741424_a_at) / RFU LOC101060620 /// MAPK8IP1 (11723275_at) / Fold change /veh LOC101060620 /// MAPK8IP1 (11723275_at) / RFU SPTSSB (11747773_x_at) / Fold change /veh SPTSSB (11747773_x_at) / RFU PRSS12 (11739890_at) / Fold change /veh PRSS12 (11739890_at) / RFU BIN1 (11741810_x_at) / Fold change /veh BIN1 (11741810_x_at) / RFU WNT11 (11732464_a_at) / Fold change /veh WNT11 (11732464_a_at) / RFU C10orf10 (11716521_a_at) / Fold change /veh C10orf10 (11716521_a_at) / RFU C5orf56 (11738089_at) / Fold change /veh C5orf56 (11738089_at) / RFU CYB561 (11721691_x_at) / Fold change /veh CYB561 (11721691_x_at) / RFU ANKRD19P (11752326_a_at) / Fold change /veh ANKRD19P (11752326_a_at) / RFU OR2T12 /// OR2T33 /// OR2T8 (11738714_s_at) / Fold change /veh OR2T12 /// OR2T33 /// OR2T8 (11738714_s_at) / RFU VCAN (11748164_a_at) / Fold change /veh VCAN (11748164_a_at) / RFU JSRP1 (11732532_at) / Fold change /veh JSRP1 (11732532_at) / RFU KRTAP10-11 (11738290_x_at) / Fold change /veh KRTAP10-11 (11738290_x_at) / RFU MYO3A (11730013_a_at) / Fold change /veh MYO3A (11730013_a_at) / RFU EBF3 (11725865_a_at) / Fold change /veh EBF3 (11725865_a_at) / RFU CAMK2N1 (11719241_x_at) / Fold change /veh CAMK2N1 (11719241_x_at) / RFU C5orf56 (11738088_a_at) / Fold change /veh C5orf56 (11738088_a_at) / RFU OLFML3 (11715873_a_at) / Fold change /veh OLFML3 (11715873_a_at) / RFU LOC100653217 /// NTM (11731650_a_at) / Fold change /veh LOC100653217 /// NTM (11731650_a_at) / RFU MAPK11 (11762145_a_at) / Fold change /veh MAPK11 (11762145_a_at) / RFU FIZ1 (11724087_x_at) / Fold change /veh FIZ1 (11724087_x_at) / RFU OASL (11726364_x_at) / Fold change /veh OASL (11726364_x_at) / RFU SOX15 (11748057_x_at) / Fold change /veh SOX15 (11748057_x_at) / RFU CD79A (11719716_a_at) / Fold change /veh CD79A (11719716_a_at) / RFU HIST1H1D (11736915_at) / Fold change /veh HIST1H1D (11736915_at) / RFU CASKIN2 (11723855_a_at) / Fold change /veh CASKIN2 (11723855_a_at) / RFU LOC730098 (11760151_x_at) / Fold change /veh LOC730098 (11760151_x_at) / RFU OR4N2 (11742367_at) / Fold change /veh OR4N2 (11742367_at) / RFU PRRT2 (11749266_a_at) / Fold change /veh PRRT2 (11749266_a_at) / RFU SNX32 (11753110_a_at) / Fold change /veh SNX32 (11753110_a_at) / RFU CDHR5 (11726645_a_at) / Fold change /veh CDHR5 (11726645_a_at) / RFU RCAN1 (11760418_a_at) / Fold change /veh RCAN1 (11760418_a_at) / RFU FAM167A (11723789_a_at) / Fold change /veh FAM167A (11723789_a_at) / RFU FAM26E (11764081_at) / Fold change /veh FAM26E (11764081_at) / RFU ISYNA1 (11749810_s_at) / Fold change /veh ISYNA1 (11749810_s_at) / RFU ACY1 (11761880_at) / Fold change /veh ACY1 (11761880_at) / RFU 11764098_at / Fold change /veh 11764098_at / RFU SAMD14 (11745864_x_at) / Fold change /veh SAMD14 (11745864_x_at) / RFU NPB (11741838_a_at) / Fold change /veh NPB (11741838_a_at) / RFU TMPRSS6 (11731388_a_at) / Fold change /veh TMPRSS6 (11731388_a_at) / RFU KRTAP10-2 (11738614_at) / Fold change /veh KRTAP10-2 (11738614_at) / RFU ARHGAP8 /// PRR5-ARHGAP8 (11727945_x_at) / Fold change /veh ARHGAP8 /// PRR5-ARHGAP8 (11727945_x_at) / RFU KRTAP5-7 /// NADSYN1 (11734609_at) / Fold change /veh KRTAP5-7 /// NADSYN1 (11734609_at) / RFU RASL12 (11751679_a_at) / Fold change /veh RASL12 (11751679_a_at) / RFU CDKN2B (11736163_a_at) / Fold change /veh CDKN2B (11736163_a_at) / RFU PRF1 (11729649_at) / Fold change /veh PRF1 (11729649_at) / RFU, ZNF638 /// ZNF638-IT1 / Fold change vs veh, ZNF638 /// ZNF638-IT1 / RFU, PANK3 / Fold change vs veh, PANK3 / RFU, SH3YL1 / Fold change vs veh, SH3YL1 / RFU, ZEB2 / Fold change vs veh, ZEB2 / RFU, NRIP1 / Fold change vs veh, NRIP1 / RFU, PTTG1IP / Fold change vs veh, PTTG1IP / RFU, CAPN2 / Fold change vs veh, CAPN2 / RFU, MED14 / Fold change vs veh, MED14 / RFU, SNORA58 / Fold change vs veh, SNORA58 / RFU, C1orf63 / Fold change vs veh, C1orf63 / RFU, LRRFIP1 / Fold change vs veh, LRRFIP1 / RFU, NDUFAF7 / Fold change vs veh, NDUFAF7 / RFU, SLC12A2 / Fold change vs veh, SLC12A2 / RFU, IBTK / Fold change vs veh, IBTK / RFU, ESF1 / Fold change vs veh, ESF1 / Fold change vs veh, TMEM50B / RFU, TAOK1 / Fold change vs veh, TAOK1 / RFU, ACBD3 / Fold change vs veh, ACBD3 / RFU, TMA16 / Fold change vs veh, TMA16 / RFU, RWDD3 / Fold change vs veh, RWDD3 / RFU, BCAT1 / Fold change vs veh, BCAT1 / RFU, EDEM3 / Fold change vs veh, EDEM3 / RFU, TMEM33 / Fold change vs veh, TMEM33 / RFU, WDR75 / Fold change vs veh, WDR75 / RFU, AHCTF1 / Fold change vs veh, AHCTF1 / RFU, TFRC / Fold change vs veh, TFRC / RFU, ZDHHC17 / Fold change vs veh, ZDHHC17 / RFU, NOM1 / Fold change vs veh, NOM1 / RFU, ARL8B / Fold change vs veh, ARL8B / RFU, ZBTB11 / Fold change vs veh, ZBTB11 / RFU, TAMM41 / Fold change vs veh, TAMM41 / RFU, KIAA1704 /// LOC100996395 / Fold change vs veh, KIAA1704 /// LOC100996395 / RFU, ING1 / Fold change vs veh, ING1 / RFU, TRMT61B / Fold change vs veh, TRMT61B / RFU, FUBP3 / Fold change vs veh, FUBP3 / RFU, TP53 / Fold change vs veh, TP53 / RFU, TNKS2 / Fold change vs veh, TNKS2 / RFU, ZFP14 / Fold change vs veh, ZFP14 / RFU, ACTR2 / Fold change vs veh, ACTR2 / RFU, PPP3R1 / Fold change vs veh, PPP3R1 / RFU, PIK3R1 / Fold change vs veh, PIK3R1 / RFU, HNRNPA1 / Fold change vs veh, HNRNPA1 / RFU, RNF170 / Fold change vs veh, RNF170 / RFU, ZNF28 / Fold change vs veh, ZNF28 / RFU, RNGTT / Fold change vs veh, RNGTT / RFU, OGT / Fold change vs veh, OGT / RFU, BRD1 / Fold change vs veh, BRD1 / RFU, MARS / Fold change vs veh, MARS / RFU, ZNF655 / Fold change vs veh, ZNF655 / RFU, FAHD1 / Fold change vs veh, FAHD1 / RFU, BDP1 / Fold change vs veh, BDP1 / RFU, LRRCC1 / Fold change vs veh, LRRCC1 / RFU, ARID1A / Fold change vs veh, ARID1A / RFU, ZNF146 / Fold change vs veh, ZNF146 / RFU, ZNF330 / Fold change vs veh, ZNF330 / RFU, GPN3 / Fold change vs veh, GPN3 / RFU, C9orf123 / Fold change vs veh, C9orf123 / RFU, N4BP2L2 / Fold change vs veh, N4BP2L2 / RFU, ARFIP1 / Fold change vs veh, ARFIP1 / RFU, FAM179B / Fold change vs veh, FAM179B / RFU, BCL10 / Fold change vs veh, BCL10 / RFU, UHRF1BP1L / Fold change vs veh, UHRF1BP1L / RFU, BET1 / Fold change vs veh, BET1 / RFU, CNOT2 / Fold change vs veh, CNOT2 / RFU, ZNF268 / Fold change vs veh, ZNF268 / Fold change vs veh, ZNF507 / RFU, DGCR2 / Fold change vs veh, DGCR2 / RFU, WDSUB1 / Fold change vs veh, WDSUB1 / Fold change vs veh, HSP90B1 /// MIR3652 / RFU, ADSS / Fold change vs veh, ADSS / RFU, GK / Fold change vs veh, GK / RFU, ZNF148 / Fold change vs veh, ZNF148 / RFU, TAF9 / Fold change vs veh, TAF9 / RFU, SLC1A5 / Fold change vs veh, SLC1A5 / RFU, SLMO2 / Fold change vs veh, SLMO2 / RFU, ABCC4 / Fold change vs veh, ABCC4 / RFU, LOC101060439 /// RAP1B / Fold change vs veh, LOC101060439 /// RAP1B / RFU, RFX7 / Fold change vs veh, RFX7 / RFU, GTPBP10 / Fold change vs veh, GTPBP10 / RFU, CNEP1R1 / Fold change vs veh, CNEP1R1 / RFU, BIVM-ERCC5 /// ERCC5 / Fold change vs veh, BIVM-ERCC5 /// ERCC5 / RFU, ILF3 / Fold change vs veh, ILF3 / RFU 11762660_at / Fold change /veh 11762660_at / RFU VCAN (11757783_s_at) / Fold change /veh VCAN (11757783_s_at) / RFU DDX43 (11728927_at) / Fold change /veh DDX43 (11728927_at) / RFU KRT8 (11758188_x_at) / Fold change /veh KRT8 (11758188_x_at) / RFU NKD1 (11759106_at) / Fold change /veh NKD1 (11759106_at) / RFU SRD5A1 (11742802_a_at) / Fold change /veh SRD5A1 (11742802_a_at) / RFU TPSAB1 /// TPSB2 (11721975_s_at) / Fold change /veh TPSAB1 /// TPSB2 (11721975_s_at) / RFU GSTM3 (11746129_a_at) / Fold change /veh GSTM3 (11746129_a_at) / RFU IL23R (11737362_x_at) / Fold change /veh IL23R (11737362_x_at) / RFU TMEM51 (11727254_a_at) / Fold change /veh TMEM51 (11727254_a_at) / RFU PIWIL2 (11732686_x_at) / Fold change /veh PIWIL2 (11732686_x_at) / RFU ORM1 (11744905_x_at) / Fold change /veh ORM1 (11744905_x_at) / RFU CCDC152 (11743942_at) / Fold change /veh CCDC152 (11743942_at) / RFU ECM1 (11717891_a_at) / Fold change /veh ECM1 (11717891_a_at) / RFU IL23R (11748794_a_at) / Fold change /veh IL23R (11748794_a_at) / RFU TNFAIP8L3 (11732012_x_at) / Fold change /veh TNFAIP8L3 (11732012_x_at) / RFU MBOAT4 (11741988_at) / Fold change /veh MBOAT4 (11741988_at) / RFU 11764193_at / Fold change /veh 11764193_at / RFU TMEM53 (11763286_at) / Fold change /veh TMEM53 (11763286_at) / RFU MAGEB2 (11727129_at) / Fold change /veh MAGEB2 (11727129_at) / RFU TMEM200A (11744735_a_at) / Fold change /veh TMEM200A (11744735_a_at) / RFU CCDC152 (11751479_a_at) / Fold change /veh CCDC152 (11751479_a_at) / RFU FAM211A (11726209_a_at) / Fold change /veh FAM211A (11726209_a_at) / RFU RGS16 (11746705_a_at) / Fold change /veh RGS16 (11746705_a_at) / RFU VCAN (11755009_s_at) / Fold change /veh VCAN (11755009_s_at) / RFU RHOB (11743442_s_at) / Fold change /veh RHOB (11743442_s_at) / RFU RGS16 (11720943_a_at) / Fold change /veh RGS16 (11720943_a_at) / RFU RGS16 (11720944_at) / Fold change /veh RGS16 (11720944_at) / RFU, VPS4B / Fold change vs veh, VPS4B / RFU, CREB1 / Fold change vs veh, CREB1 / RFU, DNAJC13 / Fold change vs veh, DNAJC13 / RFU, GNAQ / Fold change vs veh, GNAQ / RFU, CDK5R1 / Fold change vs veh, CDK5R1 / RFU, ZRANB3 / Fold change vs veh, ZRANB3 / RFU, CUL4A / Fold change vs veh, CUL4A / RFU, CCNY / Fold change vs veh, CCNY / RFU, UFL1 / Fold change vs veh, UFL1 / RFU, COG3 / Fold change vs veh, COG3 / RFU, DIAPH2 / Fold change vs veh, DIAPH2 / RFU, SKA2 / Fold change vs veh, SKA2 / RFU, AFF3 / Fold change vs veh, AFF3 / RFU, LMF1 / Fold change vs veh, LMF1 / RFU, IPO11 / Fold change vs veh, IPO11 / RFU, DFFB / Fold change vs veh, DFFB / RFU, FOXP1 / Fold change vs veh, FOXP1 / RFU, CARD8 / Fold change vs veh, CARD8 / RFU, STRN3 / Fold change vs veh, STRN3 / RFU, ADK / Fold change vs veh, ADK / RFU, RASSF2 / Fold change vs veh, RASSF2 / RFU, WIPF1 / Fold change vs veh, WIPF1 / RFU, LARP1B / Fold change vs veh, LARP1B / RFU, RASA1 / Fold change vs veh, RASA1 / RFU, RB1 / Fold change vs veh, RB1 / RFU, PPFIA1 / Fold change vs veh, PPFIA1 / RFU, MAT2A / Fold change vs veh, MAT2A / RFU, CCT5 / Fold change vs veh, CCT5 / RFU, WDR92 / Fold change vs veh, WDR92 / RFU, CUX1 / Fold change vs veh, CUX1 / RFU, TTC7A / Fold change vs veh, TTC7A / RFU, TMEM135 / Fold change vs veh, TMEM135 / RFU, DEPTOR / Fold change vs veh, DEPTOR / RFU, CPM / Fold change vs veh, CPM / RFU, DNAJB6 / Fold change vs veh, DNAJB6 / RFU, CACNA2D3 / Fold change vs veh, CACNA2D3 / RFU, DTX4 / Fold change vs veh, DTX4 / RFU, TFCP2 / Fold change vs veh, TFCP2 / RFU, GMCL1 /// GMCL1P1 / Fold change vs veh, GMCL1 /// GMCL1P1 / RFU, AEBP2 / Fold change vs veh, AEBP2 / RFU, SNHG1 /// SNORD22 /// SNORD25 /// SNORD26 /// SNORD27 /// SNORD28 /// SNORD29 /// SNORD31 / Fold change vs veh, SNHG1 /// SNORD22 /// SNORD25 /// SNORD26 /// SNORD27 /// SNORD28 /// SNORD29 /// SNORD31 / Fold change (Aza/veh), C12orf56 (ProbeSet 11735607_a_at) / Fold change (ACY-1035/veh), C12orf56 (ProbeSet 11735607_a_at) / Fold change (Aza/veh), FGFR1OP (ProbeSet 11751329_s_at) / Fold change (ACY-1035/veh), FGFR1OP (ProbeSet 11751329_s_at) / Fold change (Aza/veh), VPS36 (ProbeSet 11739960_a_at) / Fold change (ACY-1035/veh), VPS36 (ProbeSet 11739960_a_at) / RFU SYPL1 (11715823_x_at) / Fold change /veh SYPL1 (11715823_x_at) / RFU IGFBP7 (11715501_s_at) / Fold change /veh IGFBP7 (11715501_s_at) / RFU REEP3 (11722064_at) / Fold change /veh REEP3 (11722064_at) / RFU IGLL1 (11728026_x_at) / Fold change /veh IGLL1 (11728026_x_at): dose or concentration left out as unconfirmed. The settings on record: MV-4-11 cells, 48 hours.

Consider `Nc1ncn([C@@H]2O[C@H](CO)[C@@H](O)[C@H]2O)c(=O)n1` [azacitidine], for which the “Fold change /veh CLDN22 /// WWC2 (11732394_at)” value turned out to be 1.14.
